{"source": "patent US20250324965A1", "about": "“Indicator Clearance Monitoring in Machine Perfusion of an Organ” (The Medical College of Wisconsin, Inc., priority 2021, published 2025)", "key": {"[1]": {"conditions": "normal rats; ICG 10 μg/kg, sodium fluorescein 2 mg/kg; cited from earlier work"}, "[2]": {"conditions": "normal value; cited from earlier work"}, "Mrp2, Mrp3, and Mrp4": {"system": "Mrp2, Mrp3, and Mrp4", "conditions": "daily gavage for 4 days consecutively; normal mouse liver (without IRI); cited from earlier work"}, "[3]": {"conditions": "cited from earlier work"}, "[4]": {"test": "Sodium fluorescein clearance kinetics in blood and bile in the in vivo rat hepatic IRI model", "parameters": "species or system Sprague-Dawley rats", "source_text": "Male 7- to 8-wk-old Sprague-Dawley rats (median body weight of 243 g, interquartile range of 228-260 g, Charles River Laboratories) were housed in an animal facility accredited by the Association for Assessment and Accreditation of Laboratory Animal Care. The rats were fed Purina Lab Diet 5001 and reverse osmosis water ad libitum. All animals received humane care in accordance with the National Institutes of Health Guide for the Care and Use of Laboratory Animals. Only male rats were used in these experiments because multidrug resistance-associated protein 2 (MRP2), which is responsible for fluorescein excretion from the hepatocyte, is impaired by estradiol glucuronide. All experiments were approved by the Institutional Animal Care and Use Committee at the Medical College of Wisconsin (animal use Application No. 00004857).\nWe evaluated the effect of hepatic IRI on sodium fluorescein clearance by applying different warm ischemia times (WITs; 0 min, 30 min, or 60 min) and reperfusion times (1 h or 4 h). Thus, there were five experimental groups (n=5 each) based on ischemia and reperfusion times: no ischemia (control), brief ischemia (30 min) followed by 1 h of reperfusion, prolonged ischemia (60 min) followed by 1 h of reperfusion, brief ischemia (30 min) followed by 4 h of reperfusion, and prolonged ischemia (60 min) followed by 4 h of reperfusion (FIG. 32A).\nSurgery was performed under isoflurane inhalation anesthesia (1%-3%; oxygen flow 1 L/min). Animals were placed on a warming pad set to obtain a temperature of around 39° C. (Far Infrared Warming Pad, Kent Scientific, Torrington, CT). A transverse abdominal incision was made, and the pedicles to the median and lateral lobes of the liver (˜70% of the volume of the liver) were temporarily occluded using a small vascular clamp (FE011K, Aesculap, Melsungen, Germany). This approach has been utilized for testing the effect of hepatic IRI on biliary excretion of fluorescein. During the designated time period for hepatic IRI, the abdominal wall was temporarily closed to prevent dehydration and heat loss.\nFor injection and sampling, blood vessels and the bile duct were cannulated as follows: a midline incision was made on the neck, and 8- to 10-cm polyethylene tubes were cannulated to the right jugular vein (0.58 mm inner diameter (ID)×0.97 mm outer diameter (OD); PE50, Braintree Scientific, Braintree, MA) and right carotid artery (0.28 mm ID×0.61 mm OD; PE10, Braintree Scientific, Braintree, MA). The polyethylene tubes in the vessels were attached to a 30-gauge blunt needle (SAI Infusion Technologies, Lake Villa, IL) and filled with 20 U/mL heparin in 0.9% saline. Another polyethylene tube (0.28 mm ID×0.61 mm OD; PE10, Braintree Scientific, Braintree, MA) was cannulated into the bile duct for bile sampling (FIG. 33B). The cannulation procedure was performed under a surgical microscope (Amscope, Irvine, CA).\nBlood and bile were collected at eight time points over 60 min (0, 2, 5, 10, 20, 30, 45, and 60 min). At each time point, 180 μL of blood was collected by a heparin-coated syringe from the polyethylene tubing in the left carotid artery and mixed with 20 μL of heparin solution (10,000 U/mL). Of this 200-μL blood sample, 20 μL was used for whole blood analysis. The remaining 180 μL was centrifuged (3,000 rpm for 10 min), and 20 μL of supernatant was collected for plasma sample analysis. Likewise, 30 μL of bile was collected from the polyethylene tubing in the bile duct at each time point.\nOnce the baseline (0 min) samples were collected, sodium fluorescein (Sigma-Aldrich, St. […]\nThe blood, plasma, and bile samples (20 μL each) were placed in a 384-well plate (Greiner Bio-one, Monroe, NC) and covered with plastic film to minimize evaporation. The fluorescence intensity was measured in the samples using a microplate reader (CLARIOstar, BMG Labtech, Ortenberg, Germany), with the excitation set at 478 nm and emission light collected within the 505-552-nm spectral range. […]"}, "[5]": {"test": "Fluorescein clearance (bile-to-perfusate fluorescence) in ex vivo rat liver machine perfusion", "conditions": "WIT varied, CIT constant at 3 hours", "source_text": "This Example presents data obtained using ex vivo rat liver tissue in a perfusion machine system and provides further evidence supporting the usefulness of such measurements as a way to assess transplant tissue health and quality. With liver transplant there are two ischemia times: warm ischemia time (WIT) which is the time from tissue removal from the donor until cold fluid perfusion into the liver tissue; after cold perfusion, the remaining ischemia is termed cold ischemia time (CIT), which is slower. Most liver tissue can tolerate up to 30 min. of WIT whereas CIT can be tolerated for up to 12 hours. A certain amount of WIT and CIT cannot be prevented since some time is always required at each stage, nevertheless the goal is to minimize WIT.\nIn the experiments of FIG. 39, the WIT was varied while keeping the CIT constant at 3 hours. After this regimen, the fluorescein clearance was tested and the ratio of fluorescein in bile relative to the amount in perfusate was determined at various times."}, "[6]": {"conditions": "severe hepatic IRI (WIT=60 min) vs control and mild IRI groups, 2 mg/kg i.v."}}, "note": "“Also recorded” adds a separate entry of the source."}
{"smiles": "CC1(C)C(/C=C/C=C/C=C/C=C2\\N(CCCCS(=O)(=O)O)c3ccc4ccccc4c3C2(C)C)=[N+](CCCCS(=O)(=O)[O-])c2ccc3ccccc3c21", "note": "[ICG, Indocyanine green]", "values": [{"measurement": "time to reach a steady state", "setting": "[1]", "value": "< 30", "unit": "min"}, {"measurement": "ICG retention ratio after 15 min (ICGR15)", "setting": "[2]", "value": "< 10", "unit": "%"}, {"measurement": "plasma disappearance rate (ICGPDR)", "setting": "[2]", "value": "over 18 %/min"}]}
{"smiles": "Cc1c(-c2cnccn2)ssc1=S", "note": "[oltipraz]", "values": [{"measurement": "induction of Mrp2, Mrp3, and Mrp4", "setting": "Mrp2, Mrp3, and Mrp4", "value": "induced"}]}
{"smiles": "O=C1OC2(c3ccc(O)cc3Oc3cc(O)ccc32)c2ccccc21", "note": "[sodium fluorescein]", "values": [{"measurement": "time to reach a steady state", "setting": "[1]", "value": "< 10", "unit": "min"}, {"measurement": "time to equilibrium of fluorescence intensity in hepatocytes and bile", "setting": "[3]; after dye injection", "value": "≤ 5", "unit": "min"}, {"measurement": "time in which metabolism by the liver through membrane transporters and excretion into bile occurs", "setting": "[3]; healthy liver", "value": "≤ 15", "unit": "min"}, {"measurement": "time to clearance from the blood into the bile", "setting": "[3]; intravenous administration, normal livers", "value": "≤ 5", "unit": "min"}, {"measurement": "bile-to-plasma fluorescence ratios across warm ischemia time (WIT) groups", "setting": "[4]; 2 mg/kg i.v., WIT 0, 30, 60 min, 1 h or 4 h reperfusion", "value": "inverse correlation with WIT; also recorded: stepwise decrease"}, {"measurement": "bile-to-plasma (or bile-to-whole blood) fluorescence ratios in the 60-min WIT group", "setting": "[4]; 2 mg/kg i.v., vs control or 30-min WIT groups", "value": "distinctly lower"}, {"measurement": "excretion of fluorescein measured by fluorescence in bile samples", "setting": "[4]; IRI vs control, intravenous infusion, preliminary in vivo rat experiment (FIG. 4)", "value": "noticeably compromised"}, {"measurement": "significant clearance of fluorescein from blood into bile", "setting": "[4]; i.v. bolus 2 mg/kg", "value": "observed immediately"}, {"measurement": "delay of clearance from blood into bile", "setting": "[4]; i.v. dose of 10 mg/kg", "value": "over 1 h"}, {"measurement": "hepatic clearance of fluorescein", "setting": "[4]; in hepatic IRI", "value": "suppressed"}, {"measurement": "fluorescence intensities in bile", "setting": "[4]; [6]", "value": "lower"}, {"measurement": "fluorescence intensities in whole blood and plasma", "setting": "[4]; [6]", "value": "elevated"}, {"measurement": "area under the curve (AUC) of bile-to-perfusate fluorescence intensity", "setting": "[5]", "value": "inversely correlated with WIT"}, {"measurement": "time course of bile-to-perfusate fluorescence intensity values (excretion of fluorescein)", "setting": "[5]", "value": "compromised excretion"}]}
